B1: Ii Hook: previously described Invariant chain-based Hook: streptavidin fused to human invariant chain Ii (Boncompain et al. 2012) (protein)
chain: MHRRRSRSCREDQKPVMDDQRDLISNNEQLPMLGRRPGAPESKCSRGALYTGFSILVTLLLAGQATTAYFLYQQQGRLDKLTVTSQNLQLENLRMKLPKPPKPVSKMRMATPLLMQALPMGALPQGPMQNATKYGNMTEDHVMHLLQNADPLKVYPPLKGSFPENLRHLKNTMETIDWKVFESWMHHWLLFEMSRHSLEQKPTDAPPKESLELEDPSSGLGVTKQDLGPVPM
modifications: left off: large carriers

Legend:
Format in all cases: cell-based
scFvCD19-Myc-DAP10-sSBP = assay: Time course release using biotin (RUSH traffic, immunofluorescence) with Str-endoKKXX hook; conditions: HeLa cells, addition of biotin (40 μM)
Procedure: (§1) HeLa cells were cultivated at 37° C. and 5% of CO2 in Dulbecco's modified Eagle medium (DMEM) supplemented with 10%1-BS (Biowest), 1 mM sodium Pyruvate and […] of penicillin and streptomycin (Invitrogen). HeLa cells were transfected with the plasmid of interest using Calcium phosphate protocol in the presence of 25 mM of HEPES. Briefly, the plasmids coding the sequence of CAR based RUSH such as CD3-SBP-NKG2D (SEQ ID NO: 13), scFv(CD19)-GFP-DAP10CD3-sSBP (SEQ ID NO: 23), scFv(CD19)-GFP-DAP10-SBPdel (SEQ ID NO: 24), scFv(CD19)-mycDAP10-SBP (SEQ ID NO: 25) or BACE1-SBP-EGFP (SEQ ID NO: 26) (2.5 ug per 1 mL of final volume) were add to 1 mM tris-HCl pH 8.02 buffer followed by the addition of 10% of CaCl2 and incubated for 5 min (RT). Then this mix was add drop by drop into 2× concentrate HEBS buffer (160 mM NaCl, 1.5 mM Na2HPO4, 50 mM Hepes PH 7.04-7.05) while vortexing. The cells were incubated with this solution overnight at 37° C. and 5% of CO2.
(§2) The cells were seeded into a glass coverslips for fixed cell immunofluorescence and/or live imaging. In the next day the cells were transfected with the plasmids coding the construct of interest as previously described. For the steady state of the protein/construct, 40 μM final concentration of biotin was added (4 mM stock solution) just after addition of the transfection solution. […]

[1] = system: scFv (CD19)-GFP-DAP10-sSBP; assay: Time course release using biotin (RUSH traffic) with soluble mini hook; conditions: HeLa cells, addition of biotin
Procedure: as §1, §2

[2] = system: scFv (CD19)-GFP-DAP10CD3-sSBP; assay: as above; conditions: HeLa cells, addition of biotin
Procedure: as §1, §2

[3] = system: BACE1-GFP-SBP (BACE1-RUSH); assay: Retention, ALiS-1 release and wash-out retrieval from the cell surface; conditions: HeLa cells
Procedure: as §1
Biotin-mimetic molecule ALiS-1 was prepared in DMSO to 20 mM (stock solution) and the cells were treated with 40 μM final concentration to prevent the interaction between the reporter (target membrane protein) and the hook.
Cells coated in the coverslips were washed once in 1×PBS buffer, fixed in 3% of paraformaldehyde (PFA) (10-15 min, RT), washed (2×) and incubated with 50 mM of NH4Cl (5 min, RT) to quench free aldehydes. […]

Molecule | release of reporter from the hook (scFvCD19-Myc-DAP10-sSBP) | release of reporter from the hook [1] | release of reporter from the hook [2] | localization of reporter ([3]; absence of releasing molecule (without biotin)) | retrieval of cell surface reporter back to the ER ([3]; washing-out ALiS-1 for 1 hour)
O=C(O)CCCC[C@@H]1SC[C@@H]2NC(=O)N[C@@H]21 [biotin] | released | leads to the release | leads to the release |  | 
B1 |  |  |  | retained in the ER | does not allow to capture cell surface localized BAC1-RUSH
